Where a name gives a salt, the structure may show the parent alone.
Key:
Tpl2 = Tpl2 (Homo sapiens, UniProt P41279); details: background statement; cited from earlier work
human Cot/Tpl2 kinase = target: T1, human Cot/Tpl2 kinase (Homo sapiens, UniProt P41279); assay: Tpl2/Cot kinase assay, GST-MEK1 phosphorylation detected by ELISA (DELFIA Eu); assay type: biochemical
T1 construct: human Cot/Tpl2 kinase construct encoding residues 30-398; 6His (N); made in house; host or cells: Sf9 insect cells (baculovirus system, BD Biosciences)
T1 sequence (P41279 30-398): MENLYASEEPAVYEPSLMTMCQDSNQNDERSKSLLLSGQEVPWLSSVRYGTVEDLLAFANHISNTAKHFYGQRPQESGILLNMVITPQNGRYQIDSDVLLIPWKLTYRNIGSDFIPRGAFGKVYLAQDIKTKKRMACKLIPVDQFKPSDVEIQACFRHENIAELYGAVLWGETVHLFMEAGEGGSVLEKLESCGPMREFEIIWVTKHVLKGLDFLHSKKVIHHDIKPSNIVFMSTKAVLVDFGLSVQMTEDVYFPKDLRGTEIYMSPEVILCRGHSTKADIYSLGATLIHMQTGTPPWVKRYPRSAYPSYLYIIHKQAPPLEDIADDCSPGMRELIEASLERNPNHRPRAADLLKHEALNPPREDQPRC

[1] = Table 1, 0.4 nM Tpl2, 35 nM GST-MEK1, 50 uM ATP, 1 h at 30° C.
[2] = Table 2, additional representative compounds

Tpl2, sequence (P41279 whole entry): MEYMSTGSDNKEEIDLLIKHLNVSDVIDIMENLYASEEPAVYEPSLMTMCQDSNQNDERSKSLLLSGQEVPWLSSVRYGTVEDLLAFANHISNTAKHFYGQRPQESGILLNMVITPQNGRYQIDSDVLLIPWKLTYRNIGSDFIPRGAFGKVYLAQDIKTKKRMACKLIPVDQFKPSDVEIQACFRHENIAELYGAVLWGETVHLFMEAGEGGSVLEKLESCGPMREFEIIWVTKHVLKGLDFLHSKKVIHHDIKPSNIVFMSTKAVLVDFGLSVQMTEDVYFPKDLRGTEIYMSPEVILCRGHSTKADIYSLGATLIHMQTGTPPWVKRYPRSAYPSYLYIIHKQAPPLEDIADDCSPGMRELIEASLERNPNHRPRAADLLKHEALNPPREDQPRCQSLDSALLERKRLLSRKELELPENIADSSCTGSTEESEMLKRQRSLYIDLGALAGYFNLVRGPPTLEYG

Row | Compound | IC50 (human Cot/Tpl2 kinase; [1]) | IC50 (human Cot/Tpl2 kinase; [2]) | other results
1 | CN[C@@H]1C[C@H]2O[C@@](C)([C@@H]1OC)n1c3ccccc3c3c4c(c5c6ccccc6n2c5c31)C(=O)NC4 [staurosporine] | – | – | inhibition of Tpl2 (Tpl2): not inhibited
2 | N#Cc1cnc2cnc(NCc3cccnc3)cc2c1Nc1ccc(Cl)c(Cl)c1 [Example 63, 4-[(3,4-dichlorophenyl)amino]-6-[(pyridin-3-ylmethyl)amino]-1,7-naphthyridine-3-carbonitrile] | > 40000 nM | – | –
3 | N#Cc1cnc2cnc(F)cc2c1NCc1ccc(F)c(Cl)c1 [Example 98, 4-[(3-chloro-4-fluorobenzyl)amino]-6-fluoro-1,7-naphthyridine-3-carbonitrile] | – | > 40000 nM | –
4 | N#Cc1cnc2cnc(NCc3cccnc3)cc2c1Nc1cc(Cl)cc(Cl)c1 [Example 69, 4-[(3,5-dichlorophenyl)amino]-6-[(pyridin-3-ylmethyl)amino]-1,7-naphthyridine-3-carbonitrile] | 4100 nM | – | –
5 | N#Cc1cnc2cnc(NCc3cccc(Br)c3)cc2c1Nc1ccc(F)c(Cl)c1 [Example 121, 6-[(3-bromobenzyl)amino]-4-[(3-chloro-4-fluorophenyl)amino]-1,7-naphthyridine-3-carbonitrile] | – | 430 nM | –
6 | CC[C@@H](Nc1cc2c(Nc3ccc(F)c(Cl)c3)c(C#N)cnc2cn1)c1ccccc1 [Example 51, 4-[(3-chloro-4-fluorophenyl)amino]-6-{[(1R)-1-phenylpropyl]amino}-1,7-naphthyridine-3-carbonitrile] | 410 nM | – | –
7 | CN(C)CCCNc1cc2c(Nc3ccc(F)c(Cl)c3)c(C#N)cnc2cn1 [Example 48, 4-[(3-chloro-4-fluorophenyl)amino]-6-{[3-(dimethylamino)propyl]amino}-1,7-naphthyridine-3-carbonitrile] | 5000 nM | – | –
8 | N#Cc1cnc2cnc(F)cc2c1Nc1ccc(Oc2ccccc2)cc1 [Example 99, 6-Fluoro-4-(4-phenoxy-phenylamino)-[1,7]naphthyridine-3-carbonitrile] | – | 20000 nM | –
9 | N#Cc1cnc2cnc(NCc3ccncc3)cc2c1Nc1ccc(F)c(Cl)c1 [Example 119, 4-(3-chloro-4-fluorophenylamino)-6-(pyridin-4-ylmethylamino)-1,7-naphthyridine-3-carbonitrile] | – | 31 nM | –
10 | C[C@@H](Nc1cc2c(N(C)C3CCCCCC3)c(C#N)cnc2cn1)c1ccccc1 [Example 137, 4-[cycloheptyl(methyl)amino]-6-{[(1R)-1-phenylethyl]amino}-1,7-naphthyridine-3-carbonitrile] | – | > 40000 nM | –
11 | N#Cc1cnc2cnc(NCCN3CCOCC3)cc2c1Nc1cccc(C(N)=O)c1 [Example 86, 3-(3-cyano-6-(2-morpholinoethylamino)-1,7-naphthyridin-4-ylamino)benzamide] | > 10000 nM | – | –
12 | N#Cc1cnc2cnc(NCCc3ccc(S(N)(=O)=O)cc3)cc2c1Nc1ccc(F)c(Cl)c1 [Example 120, 4-(2-(4-(3-chloro-4-fluorophenylamino)-3-cyano-1,7-naphthyridin-6-ylamino)ethyl)benzenesulfonamide] | – | 230 nM | –
13 | N#Cc1cnc2cnc(NCc3cccnc3)cc2c1NC1CCCC1 [Example 112, 4-(cyclopentylamino)-6-[(pyridin-3-ylmethyl)amino]-1,7-naphthyridine-3-carbonitrile] | – | 320 nM | –
14 | N#Cc1cnc2cnc(NCc3cccnc3)cc2c1Nc1ccc(OC(F)(F)F)cc1 [Example 33, 6-(pyridin-3-ylmethylamino)-4-(4-(trifluoromethoxy)phenylamino)-1,7-naphthyridine-3-carbonitrile] | > 40000 nM | – | –
15 | N#Cc1cnc2cnc(NCCN3CCNCC3)cc2c1Nc1ccc(Cc2ccccc2)cc1 [Example 25, 4-(4-benzylphenylamino)-6-(2-(piperazin-1-yl)ethylamino)-1,7-naphthyridine-3-carbonitrile, hydrochloride salt] | 38 nM | – | –
16 | CC(C)c1cccc(Nc2c(C#N)cnc3cnc(F)cc23)c1 [Example 97, 6-fluoro-4-[(3-isopropylphenyl)amino]-1,7-naphthyridine-3-carbonitrile] | – | > 40000 nM | –

Row | Compound | IC50 (human Cot/Tpl2 kinase; [1]) | IC50 (human Cot/Tpl2 kinase; [2]) | other results
17 | N#Cc1cnc2cnc(F)cc2c1Nc1ccc(Cc2ccccc2)cc1 [Example 106, 4-[(4-benzylphenyl)amino]-6-fluoro-1,7-naphthyridine-3-carbonitrile] | – | 300 nM | –
18 | C[C@@H](Nc1cc2c(NC3CCCCCC3)c(C#N)cnc2cn1)c1ccccc1 [Example 133, 4-(cycloheptylamino)-6-{[(1R)-1-phenylethyl]amino}-1,7-naphthyridine-3-carbonitrile] | – | 920 nM | –
19 | CCN1CCC[C@H]1CNc1cc2c(Nc3ccc(F)c(Cl)c3)c(C#N)cnc2cn1 [Example 74] | 180 nM | – | –
20 | N#Cc1cnc2cnc(NCCN3CCOCC3)cc2c1Nc1ccc2[nH]ccc2c1 [Example 44, 4-(1H-indol-5-ylamino)-6-[(2-morpholin-4-ylethyl)amino]-1,7-naphthyridine-3-carbonitrile] | > 40000 nM | – | –
21 | N#Cc1cnc2cnc(NCc3cccnc3)cc2c1Nc1cccc(OC(F)(F)F)c1 [Example 32, 6-(pyridin-3-ylmethylamino)-4-(3-(trifluoromethoxy)phenylamino)-1,7-naphthyridine-3-carbonitrile] | > 40000 nM | – | –
22 | N#Cc1cnc2cnc(NCCN3CCOCC3)cc2c1Nc1ccc(F)c(F)c1 [Example 13, 4-(3,4-difluorophenylamino)-6-(2-morpholinoethylamino)-1,7-naphthryidine-3-carbonitrile] | 3600 nM | – | –
23 | C#CC1(Nc2c(C#N)cnc3cnc(F)cc23)CCCCC1 [Example 142, 4-[(1-ethynylcyclohexyl)amino]-6-fluoro-1,7-naphthyridine-3-carbonitrile] | – | 28000 nM | –
24 | CC(C)c1cccc(Nc2c(C#N)cnc3cnc(OCCN4CCOCC4)cc23)c1 [Example 36, 4-[(3-isopropylphenyl)amino]-6-(2-morpholin-4-ylethoxy)-1,7-naphthyridine-3-carbonitrile] | > 40000 nM | – | –
25 | N#Cc1cnc2cnc(NC(CN3CCOCC3)c3ccccc3)cc2c1Nc1ccc(F)c(Cl)c1 (centres unmarked) [Example 60, 4-[(3-chloro-4-fluorophenyl)amino]-6-[(2-morpholin-4-yl-1-phenylethyl)amino]-1,7-naphthyridine-3-carbonitrile] | 2400 nM | – | –
26 | COc1ccc(CNc2cc3c(Nc4ccc(F)c(Cl)c4)c(C#N)cnc3cn2)cc1 [Example 96, 4-[(3-chloro-4-fluorophenyl)amino]-6-[(4-methoxybenzyl)amino]-1,7-naphthyridine-3-carbonitrile] | – | 200 nM | –
27 | N#Cc1cnc2cnc(NCc3cccnc3)cc2c1Nc1ccc(Nc2ccccc2)cc1 [Example 18, 4-(4-(phenylamino)phenylamino)-6-(pyridin-3-ylmethylamino)-1,7-naphthyridine-3-carbonitrile] | > 10000 nM | – | –
28 | C[C@H](O)CNc1cc2c(Nc3ccc(F)c(Cl)c3)c(C#N)cnc2cn1 [Example 56, 4-[(3-chloro-4-fluorophenyl)amino]-6-{[(2S)-2-hydroxypropyl]amino}-1,7-naphthyridine-3-carbonitrile] | 3600 nM | – | –
29 | CN(C)CCNc1cc2c(Nc3ccc(Cc4ccccc4)cc3)c(C#N)cnc2cn1 [Example 108, 4-[(4-benzylphenyl)amino]-6-{[2-(dimethylamino)ethyl]amino}-1,7-naphthyridine-3-carbonitrile] | – | > 10000 nM | –
30 | Cc1ccc(Nc2c(C#N)cnc3cnc(N[C@H](C)c4ccccc4)cc23)cc1Br [Example 65] | 6200 nM | – | –
31 | N#Cc1cnc2cnc(NCCN3CCOCC3)cc2c1Nc1cccc(F)c1 [Example 24, 4-(3-fluorophenylamino)-6-(2-morpholinoethylamino)-1,7-naphthyridine-3-carbonitrile] | 1120 nM | – | –
32 | CN1CCN(CCCNc2cc3c(Nc4ccc(Cc5ccccc5)cc4)c(C#N)cnc3cn2)CC1 [Example 22, 4-(4-benzylphenylamino)-6-(3-(4-methylpiperazin-1-yl)propylamino)-1,7-naphthyridine-3-carbonitrile] | 79 nM | – | –
